In patent publication US9062124B2, “GIP-based mixed agonists for treatment of metabolic disorders and obesity” (priority 2008, dated 2015):
Where a SMILES comes first, the peptide text is derived from it. [ ]: non-standard residue; d: D form. Dab = NCC[C@H](N)C(=O)O; Aib = CC(C)(N)C(=O)O

Key:
Type in all cases: cell-based
GIP receptor = biological target: T1, GIP receptor (Homo sapiens, UniProt P48546); assay: cAMP synthesis functional assay (firefly luciferase reporter in HEK293 cells), GIP receptor; conditions: for EC50: GIP Receptor EC50, cAMP luciferase reporter assay as in Example 16
T1 construct: expressed in transfected cells; host or cells: HEK293
T1 sequence (P48546 22-466): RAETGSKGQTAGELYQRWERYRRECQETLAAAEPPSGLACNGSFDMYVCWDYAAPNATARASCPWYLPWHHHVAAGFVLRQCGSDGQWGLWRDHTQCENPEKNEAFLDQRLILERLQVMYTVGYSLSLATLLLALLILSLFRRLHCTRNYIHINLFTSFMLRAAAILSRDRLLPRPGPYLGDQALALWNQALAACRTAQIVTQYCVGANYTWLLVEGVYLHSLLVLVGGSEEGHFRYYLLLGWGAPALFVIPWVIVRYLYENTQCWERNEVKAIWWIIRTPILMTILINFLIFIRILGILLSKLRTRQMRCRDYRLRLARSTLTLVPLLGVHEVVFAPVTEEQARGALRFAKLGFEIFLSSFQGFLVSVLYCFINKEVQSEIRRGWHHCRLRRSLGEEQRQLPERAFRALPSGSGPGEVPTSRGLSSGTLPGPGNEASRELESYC

glucagon receptor = biological target: T2, glucagon receptor (Homo sapiens, UniProt P47871); assay: cAMP synthesis functional assay (firefly luciferase reporter in HEK293 cells), glucagon receptor; conditions: for EC50: Glucagon Receptor EC50, cAMP luciferase reporter assay as in Example 16
T2 construct: expressed in transfected cells; host or cells: HEK293
T2 sequence (P47871 26-477): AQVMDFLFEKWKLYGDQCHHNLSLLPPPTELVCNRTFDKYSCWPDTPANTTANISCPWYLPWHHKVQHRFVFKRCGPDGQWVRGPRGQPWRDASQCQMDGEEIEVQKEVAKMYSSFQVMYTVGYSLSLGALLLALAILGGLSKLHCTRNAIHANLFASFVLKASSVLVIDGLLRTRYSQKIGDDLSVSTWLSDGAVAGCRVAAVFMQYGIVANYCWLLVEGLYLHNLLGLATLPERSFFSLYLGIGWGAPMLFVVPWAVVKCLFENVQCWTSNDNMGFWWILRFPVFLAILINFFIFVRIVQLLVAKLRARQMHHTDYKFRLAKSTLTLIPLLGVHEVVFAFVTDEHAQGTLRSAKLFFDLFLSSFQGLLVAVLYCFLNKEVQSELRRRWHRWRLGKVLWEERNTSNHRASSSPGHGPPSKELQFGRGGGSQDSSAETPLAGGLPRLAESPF

[1] = system: glucagon receptor, GLP-1 receptor or GIP receptor; assay: Agonist profile across receptors assigned from the cAMP reporter assay data; conditions: assigned from the in vitro EC50 data of Tables 1-4
GLP-1 receptor = biological target: T3, GLP-1 receptor (Homo sapiens, UniProt P43220); assay: cAMP synthesis functional assay (firefly luciferase reporter in HEK293 cells), GLP-1 receptor; conditions: for EC50: GLP-1 Receptor EC50, cAMP luciferase reporter assay as in Example 16
T3 construct: expressed in transfected cells; host or cells: HEK293
T3 sequence (P43220 24-463, species assumed): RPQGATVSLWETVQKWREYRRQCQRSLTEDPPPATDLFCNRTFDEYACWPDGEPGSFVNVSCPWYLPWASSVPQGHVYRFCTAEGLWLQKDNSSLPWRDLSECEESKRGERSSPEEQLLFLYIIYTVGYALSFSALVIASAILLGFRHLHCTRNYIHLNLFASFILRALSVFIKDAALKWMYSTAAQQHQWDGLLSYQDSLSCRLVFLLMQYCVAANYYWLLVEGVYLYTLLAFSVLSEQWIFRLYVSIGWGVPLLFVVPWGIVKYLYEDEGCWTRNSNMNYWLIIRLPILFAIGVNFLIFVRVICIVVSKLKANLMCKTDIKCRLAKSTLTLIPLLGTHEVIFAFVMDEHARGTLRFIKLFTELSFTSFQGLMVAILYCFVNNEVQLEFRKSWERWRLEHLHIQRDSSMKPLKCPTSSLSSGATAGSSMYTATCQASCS

[2] = relative to the standard (Std.) EC50 of the same run

Structure (SMILES) | GIP Receptor relative activity (GIP receptor; Table 2) | Glucagon Receptor relative activity (glucagon receptor; Table 2) | receptor activity profile (glucagon / GLP-1 / GIP agonism) [1] | GLP-1 Receptor relative activity (GLP-1 receptor; Table 2) | EC50 (GIP receptor) | GIP Receptor relative activity (GIP receptor; [2]) | EC50 (glucagon receptor) | Glucagon Receptor relative activity (glucagon receptor; [2]) | EC50 (GLP-1 receptor) | GLP-1 Receptor relative activity (GLP-1 receptor; [2])
CC[C@H](C)[C@H](NC(=O)[C@H](CO)NC(=O)[C@H](Cc1ccc(O)cc1)NC(=O)[C@H](CC(=O)O)NC(=O)[C@H](CO)NC(=O)[C@@H](NC(=O)[C@H](Cc1ccccc1)NC(=O)[C@@H](NC(=O)CNC(=O)[C@H](CCC(N)=O)NC(=O)C(C)(C)NC(=O)[C@@H](N)Cc1ccc(O)cc1)[C@@H](C)O)[C@@H](C)O)C(=O)N[C@@H](Cc1ccc(O)cc1)C(=O)N[C@@H](CC(C)C)C(=O)N[C@@H](CC(=O)O)C(=O)N[C@@H](CCC(=O)O)C(=O)N[C@@H](CCC(N)=O)C(=O)N[C@@H](C)C(=O)N[C@@H](C)C(=O)NC(C)(C)C(=O)N[C@@H](CCC(=O)O)C(=O)N[C@@H](Cc1ccccc1)C(=O)N[C@H](C(=O)N[C@@H](CS)C(=O)N[C@@H](Cc1c[nH]c2ccccc12)C(=O)N[C@@H](CC(C)C)C(=O)N[C@@H](CC(C)C)C(=O)N[C@@H](C)C(=O)NCC(N)=O)C(C)C [mt-258] (H-Y[Aib]QGTFTSDYSIYLDEQAA[Aib]EFVCWLLAG-NH2; N-terminus assumed) | 16.84% | 14.08% | exhibited activities of glucagon/GLP-1/GIP triagonists | 58.91% | – | – | – | – | – | –
CCCCCCCCCCCCCC(=O)NCCCC[C@H](NC(=O)[C@@H](NC(=O)[C@H](Cc1ccccc1)NC(=O)[C@H](CCC(=O)O)NC(=O)C(C)(C)NC(=O)[C@H](C)NC(=O)[C@H](C)NC(=O)[C@H](CCC(N)=O)NC(=O)[C@H](CCCCN)NC(=O)[C@H](CC(=O)O)NC(=O)[C@H](CC(C)C)NC(=O)[C@H](Cc1ccc(O)cc1)NC(=O)[C@@H](NC(=O)[C@H](CO)NC(=O)[C@H](Cc1ccc(O)cc1)NC(=O)[C@H](CC(=O)O)NC(=O)[C@H](CO)NC(=O)[C@@H](NC(=O)[C@H](Cc1ccccc1)NC(=O)[C@@H](NC(=O)CNC(=O)[C@H](CCC(=O)O)NC(=O)C(C)(C)NC(=O)[C@@H](N)Cc1ccc(O)cc1)[C@@H](C)O)[C@@H](C)O)[C@@H](C)CC)C(C)C)C(=O)N[C@@H](Cc1c[nH]c2ccccc12)C(=O)N[C@@H](CC(C)C)C(=O)N[C@@H](CC(C)C)C(=O)N[C@@H](C)C(=O)NCC(=O)NCC(=O)N1CCC[C@H]1C(=O)N[C@@H](CO)C(=O)N[C@@H](CO)C(=O)NCC(=O)N[C@@H](C)C(=O)N1CCC[C@H]1C(=O)N1CCC[C@H]1C(=O)N1CCC[C@H]1C(=O)N[C@@H](CO)C(N)=O [mt-265] | – | – | exhibited activity at the GIP, GLP-1, and glucagon receptors | – | 0.0624 nM | 13.62% | 6.43 nM | 0.68% | 0.993 nM | 1.77%
CCCCCCCCCCCCCCCC(=O)NCCCC[C@H](NC(=O)[C@@H](NC(=O)[C@H](Cc1ccccc1)NC(=O)[C@H](CCC(=O)O)NC(=O)C(C)(C)NC(=O)[C@H](C)NC(=O)[C@H](C)NC(=O)[C@H](CCC(N)=O)NC(=O)[C@H](CCCCN)NC(=O)[C@H](CC(=O)O)NC(=O)[C@H](CC(C)C)NC(=O)[C@H](Cc1ccc(O)cc1)NC(=O)[C@@H](NC(=O)[C@H](CO)NC(=O)[C@H](Cc1ccc(O)cc1)NC(=O)[C@H](CC(=O)O)NC(=O)[C@H](CO)NC(=O)[C@@H](NC(=O)[C@H](Cc1ccccc1)NC(=O)[C@@H](NC(=O)CNC(=O)[C@H](CCC(=O)O)NC(=O)C(C)(C)NC(=O)[C@@H](N)Cc1ccc(O)cc1)[C@@H](C)O)[C@@H](C)O)[C@@H](C)CC)C(C)C)C(=O)N[C@@H](Cc1c[nH]c2ccccc12)C(=O)N[C@@H](CC(C)C)C(=O)N[C@@H](CC(C)C)C(=O)N[C@@H](C)C(=O)NCC(=O)NCC(=O)N1CCC[C@H]1C(=O)N[C@@H](CO)C(=O)N[C@@H](CO)C(=O)NCC(=O)N[C@@H](C)C(=O)N1CCC[C@H]1C(=O)N1CCC[C@H]1C(=O)N1CCC[C@H]1C(=O)N[C@@H](CO)C(N)=O [mt-266] | – | – | exhibited activity at the GIP, GLP-1, and glucagon receptors | – | 0.164 nM | 5.19% | 18.6 nM | 0.23% | 1.53 nM | 1.15%
CCCCCCCCCCCCCCCCCC(=O)NCCCC[C@H](NC(=O)[C@@H](NC(=O)[C@H](Cc1ccccc1)NC(=O)[C@H](CCC(=O)O)NC(=O)C(C)(C)NC(=O)[C@H](C)NC(=O)[C@H](C)NC(=O)[C@H](CCC(N)=O)NC(=O)[C@H](CCCCN)NC(=O)[C@H](CC(=O)O)NC(=O)[C@H](CC(C)C)NC(=O)[C@H](Cc1ccc(O)cc1)NC(=O)[C@@H](NC(=O)[C@H](CO)NC(=O)[C@H](Cc1ccc(O)cc1)NC(=O)[C@H](CC(=O)O)NC(=O)[C@H](CO)NC(=O)[C@@H](NC(=O)[C@H](Cc1ccccc1)NC(=O)[C@@H](NC(=O)CNC(=O)[C@H](CCC(=O)O)NC(=O)C(C)(C)NC(=O)[C@@H](N)Cc1ccc(O)cc1)[C@@H](C)O)[C@@H](C)O)[C@@H](C)CC)C(C)C)C(=O)N[C@@H](Cc1c[nH]c2ccccc12)C(=O)N[C@@H](CC(C)C)C(=O)N[C@@H](CC(C)C)C(=O)N[C@@H](C)C(=O)NCC(=O)NCC(=O)N1CCC[C@H]1C(=O)N[C@@H](CO)C(=O)N[C@@H](CO)C(=O)NCC(=O)N[C@@H](C)C(=O)N1CCC[C@H]1C(=O)N1CCC[C@H]1C(=O)N1CCC[C@H]1C(=O)N[C@@H](CO)C(N)=O [mt-267] | – | – | exhibited activity at the GIP, GLP-1, and glucagon receptors | – | 1.31 nM | 0.65% | 62 nM | 0.07% | 2.09 nM | 0.84%
CC[C@H](C)[C@H](NC(=O)[C@H](CO)NC(=O)[C@H](Cc1ccc(O)cc1)NC(=O)[C@H](CC(=O)O)NC(=O)[C@H](CO)NC(=O)[C@@H](NC(=O)[C@H](Cc1ccccc1)NC(=O)[C@@H](NC(=O)CNC(=O)[C@H](CCC(N)=O)NC(=O)C(C)(C)NC(=O)[C@@H](N)Cc1ccc(O)cc1)[C@@H](C)O)[C@@H](C)O)C(=O)N[C@@H](Cc1ccc(O)cc1)C(=O)N[C@@H](CC(C)C)C(=O)N[C@@H](CC(=O)O)C(=O)N[C@@H](CCCN)C(=O)N[C@@H](CCC(N)=O)C(=O)N[C@@H](C)C(=O)N[C@@H](C)C(=O)NC(C)(C)C(=O)N[C@@H](CCC(=O)O)C(=O)N[C@@H](Cc1ccccc1)C(=O)N[C@H](C(=O)N[C@@H](CC(N)=O)C(=O)N[C@@H](Cc1c[nH]c2ccccc12)C(=O)N[C@@H](CC(C)C)C(=O)N[C@@H](CC(C)C)C(=O)N[C@@H](C)C(=O)NCC(=O)NCC(=O)N1CCC[C@H]1C(=O)N[C@@H](CO)C(=O)N[C@@H](CO)C(=O)NCC(=O)N[C@@H](C)C(=O)N1CCC[C@H]1C(=O)N1CCC[C@H]1C(=O)N1CCC[C@H]1C(=O)N[C@@H](CO)C(=O)N[C@@H](CS)C(N)=O)C(C)C [mt-275] | – | – | exhibited activity at the GIP, GLP-1, and glucagon receptors | – | – | 112.10% | – | 62.15% | 0.0068 nM | 104.41%
CC[C@H](C)[C@H](NC(=O)[C@H](CO)NC(=O)[C@H](Cc1ccc(O)cc1)NC(=O)[C@H](CC(=O)O)NC(=O)[C@H](CO)NC(=O)[C@@H](NC(=O)[C@H](Cc1ccccc1)NC(=O)[C@@H](NC(=O)CNC(=O)[C@H](CCC(N)=O)NC(=O)C(C)(C)NC(=O)[C@@H](N)Cc1ccc(O)cc1)[C@@H](C)O)[C@@H](C)O)C(=O)N[C@@H](Cc1ccc(O)cc1)C(=O)N[C@@H](CC(C)C)C(=O)N[C@@H](CC(=O)O)C(=O)N[C@@H](CCN)C(=O)N[C@@H](CCC(N)=O)C(=O)N[C@@H](C)C(=O)N[C@@H](C)C(=O)NC(C)(C)C(=O)N[C@@H](CCC(=O)O)C(=O)N[C@@H](Cc1ccccc1)C(=O)N[C@H](C(=O)N[C@@H](CC(N)=O)C(=O)N[C@@H](Cc1c[nH]c2ccccc12)C(=O)N[C@@H](CC(C)C)C(=O)N[C@@H](CC(C)C)C(=O)N[C@@H](C)C(=O)NCC(=O)NCC(=O)N1CCC[C@H]1C(=O)N[C@@H](CO)C(=O)N[C@@H](CO)C(=O)NCC(=O)N[C@@H](C)C(=O)N1CCC[C@H]1C(=O)N1CCC[C@H]1C(=O)N1CCC[C@H]1C(=O)N[C@@H](CO)C(=O)N[C@@H](CS)C(N)=O)C(C)C [mt-276] (H-Y[Aib]QGTFTSDYSIYLD[Dab]QAA[Aib]EFVNWLLAGGPSSGAPPPSC-NH2; N-terminus assumed) | – | – | exhibited activity at the GIP, GLP-1, and glucagon receptors | – | 0.008 nM | 173.75% | – | 77.65% | – | 107.58%
